The text below walks through data of patent US20230279020A9, “CARM1 INHIBITORS AND USES THEREOF” (Epizyme, Inc., priority 2013, published 2023).

Broadly, the IC50 is the concentration at which inhibition is half-maximal.

The target in assay [1] is Human CARM1 (PRMT4) (Homo sapiens (Human), UniProt Q86X55). The assay can be described thus: CARM1 enzyme assay on peptide substrate (3H-SAM Flashplate). The following applies: Biochemical potencies, classification codes; read-out: Biochem IC50.
Assay [2] deals with asymmetric di-methyl PABP1 in RKO cells. In words: RKO methylation assay, In Cell Western (ICW) for asymmetric di-methyl PABP1. It is filed as cell-based. The conditions noted are these: Cellular potencies, PABP1me2a ICW. From the text: RKO adherent cells were purchased from ATCC (American Type Culture Collection), Manassas, Va., USA. DMEM/Glutamax medium, penicillin-streptomycin, heat inactivated fetal bovine serum, 0.05% trypsin and D-PBS were purchased from Life Technologies, Grand Island, N.Y., USA. Odyssey blocking buffer, 800CW goat anti-rabbit IgG (H+L) antibody, and Licor Odyssey infrared scanner were purchased from Licor Biosciences, Lincoln, Nebr., USA. Asymmetric di-methyl PABP1 antibody was purchased from Cell Signaling Technology, Danvers, Mass., USA. Methanol was purchased from VWR, Franklin, Mass., USA. 10% Tween 20 was purchased from KPL, Inc., Gaithersburg, Md., USA. Paraformaldehyde (PFA) was purchased from EM Sciences. DRAQ5 was purchased from Biostatus Limited, Leicestershire, UK.
RKO adherent cells were maintained in growth medium (DMEM/Glutamax medium supplemented with 10% v/v heat inactivated fetal bovine serum and 100 units/mL penicillin-streptomycin) and cultured at 37° C. under 5% CO2.
Cell treatment, In Cell Western (ICW) for detection of asymmetric di-methyl PABP1 and DNA content: RKO cells were seeded in assay medium at a concentration of 30,000 cells per mL to a poly-D-lysine coated 384 well culture plate (BD Biosciences 356697) with 50 μL per well. Compound (100 nL) from a 96-well source plate was added directly to 384 well cell plate. Plates were incubated at 37° C., 5% CO2 for 48 hours. After two days of incubation, plates were brought to room temperature outside of the incubator for ten minutes and blotted on paper towels to remove cell media. Cells were fixed for 20 minutes at room temperature by adding 50 ul of 8% PFA followed by aspiration of supernatant with the Biotek EL406 plate washer. Cells were then permeabilized by addition of 50 μL of ice cold 100% methanol directly to each well and incubated for 30 min at room temperature. After 30 min, plates were transferred to a Biotek EL406 plate washer and washed 2 times with 100 μL per well of wash buffer (1×PBS). Next 60 μL per well of Odyssey blocking buffer (Odyssey Buffer with 0.1% Tween 20 (v/v)) were added to each plate and incubated 1 hour at room temperature. Blocking buffer was removed and 20 μL per well of primary antibody was added (asymmetric-methyl PABP1) diluted 1:400 in Odyssey buffer with 0.1% Tween 20 (v/v)) and plates were incubated overnight (16 hours) at 4° C. Plates were washed 5 times with 100 μL per well of wash buffer. Next 20 μL per well of secondary antibody was added (1:800 800CW goat anti-rabbit IgG (H+L) antibody, 1:2000 DRAQ5 in Odyssey buffer with 0.1% Tween 20 (v/v)) and incubated for 1 hour at room temperature. The plates were washed 5 times with 100 μL per well wash buffer then 2 times with 100 μL per well of water. Plates were allowed to dry at room temperature then imaged on the Licor Odyssey machine which measures integrated intensity at 700 nm and 800 nm wavelengths. Both 700 and 800 channels were scanned.
First, the ratio for each well was determined by:
Each plate included fourteen control wells of DMSO only treatment (minimum inhibition) as well as fourteen control wells for maximum inhibition treated with 20 μM of a reference compound. The average of the ratio values for each control type was calculated and used to determine the percent […] for each test well in the plate. Reference compound was serially diluted three-fold in DMSO for a total of nine test concentrations, beginning at 20 μM.
Percent inhibition was determined and IC50 curves were generated using triplicate wells per concentration of compound.

Assay [3] relates to NCI-H929. In words: Human myeloma cell line 14-day proliferation assay (NCI-H929). The format is cell-based. The following applies: NCI-H929 Human Multiple Myeloma cell line, varying doses, FIG. 1A. On the procedure: (§1) Human Multiple Myeloma cell lines NCI-H929 (FIG. 1A) and U266B1 (FIG. 1B) were treated with varying doses of 304-1a (medium grey data points), 23-3 (light grey data points), and 113-3 (black data points) in a 14-day proliferation assay. At the end of the experiment, total cell number was determined for each cell line for different doses of 304-1a, 23-3, and 113-3.

Assay [4] relates to U266B1. The assay can be described thus: Human myeloma cell line 14-day proliferation assay (U266B1). The format is cell-based. The following applies: U266B1 Human Multiple Myeloma cell line, varying doses, FIG. 1B. On the procedure: as §1

Chain of Human CARM1 (PRMT4) (Q86X55 other isoform, or with tags, fused parts or gaps isoform Q86X55-1): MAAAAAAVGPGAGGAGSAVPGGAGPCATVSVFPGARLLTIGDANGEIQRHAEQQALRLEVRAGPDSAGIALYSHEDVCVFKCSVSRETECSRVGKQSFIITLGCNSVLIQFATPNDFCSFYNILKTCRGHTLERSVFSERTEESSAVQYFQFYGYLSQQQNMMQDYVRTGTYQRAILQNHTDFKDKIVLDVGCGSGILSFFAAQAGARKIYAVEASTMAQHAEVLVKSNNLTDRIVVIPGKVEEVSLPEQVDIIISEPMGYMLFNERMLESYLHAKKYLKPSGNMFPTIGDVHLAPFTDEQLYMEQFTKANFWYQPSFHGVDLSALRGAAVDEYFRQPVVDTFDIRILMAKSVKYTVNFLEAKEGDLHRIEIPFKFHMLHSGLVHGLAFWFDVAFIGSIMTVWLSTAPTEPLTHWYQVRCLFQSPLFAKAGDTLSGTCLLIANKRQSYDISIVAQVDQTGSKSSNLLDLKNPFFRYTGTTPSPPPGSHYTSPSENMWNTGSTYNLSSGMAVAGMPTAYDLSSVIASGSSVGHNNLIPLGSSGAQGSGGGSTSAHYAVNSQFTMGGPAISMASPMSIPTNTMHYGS

For the compound `CNCC(O)COc1cccc(-c2nc(NC3CCOC3=O)cc(-c3c(C)noc3C)n2)c1` (stereo not drawn) [Example 23-1a], the half-maximal inhibitory concentration (IC50) is under 0.1 µM in assay [1] and 10 to 20 µM in assay [2] (Homo sapiens, RKO).
For the compound `CCOC(=O)N1CCOC[C@@H]1CNc1nc(-c2cc(OC[C@H](O)CNC)ccc2Cl)nc(-c2c(C)noc2C)c1C` [Example 23-3], the IC50 in assay [1] is under 0.1 µM. Besides, the “cell proliferation (total cell number)” value in assay [3] and in assay [4] was “decreased the proliferation” throughout.
Take `CNCC(O)COc1cccc(-c2nc(NC3CCOC3=O)cc(-c3c(C)noc3C)n2)c1` (stereo not drawn) [Example 24-1a]: the concentration for half-maximal inhibition (IC50) in assay [2] is 10 to 20 µM.
On to `CNCC(O)COc1cccc(-c2nc(-c3c(C)noc3C)cc(N3C[C@@H]4C[C@H]3CN4C(=O)OC)n2)c1` (stereo partly drawn) [Example 105-1a], for which the IC50 in assay [1] is under 0.1 µM; in assay [2] it was 5 to 10 µM.
Take `CNC[C@@H](O)COc1ccc(Cl)c(-c2nc(-c3c(C)noc3C)c(C)c(N3Cc4cccnc4C3)n2)c1` [Example 113-3]: the IC50 in assay [1] is under 0.1 µM. Besides, the “cell proliferation (total cell number)” value in assay [3] and in assay [4] was “decreased the proliferation” in each case.
As for `CNCC(O)COc1cccc(-c2nc(-c3c(C)noc3C)c(C)c(N3CCO[C@H](CNC)C3)n2)c1` (stereo partly drawn) [Example 129-1a], the 50% inhibitory concentration (IC50) in assay [1] was under 0.1 µM; in assay [2], 10 to 20 µM.
In the case of `CNC[C@@H](O)COc1ccc(Cl)c(-c2nc(NC3CCN(C(=O)OC)CC3)c(Cl)c(-c3c(C)noc3C)n2)c1` [Example 304-1a], the IC50 in assay [1] is under 0.1 µM. In addition, the “cell proliferation (total cell number)” value in assay [3] and in assay [4] was “decreased the proliferation” each time.
As to `CNCC(O)COc1cccc(-c2nc(N[C@@H]3CCOC3)c(C)c(N3CCC(n4c(C)nnc4C)CC3)n2)c1` (stereo partly drawn) [Example 390-1a], the 50% inhibitory concentration (IC50) in assay [2] (Homo sapiens, RKO) lay in the range of 5 to 10 µM.
For `CNCC(O)COc1cccc(-c2nc(N[C@@H]3CCOC3)c(C)c(-c3ccc4nccn4c3)n2)c1` (stereo partly drawn) [Example 445-1a], the IC50 in assay [2] (Homo sapiens, RKO) fell in the range of 10 to 20 µM.
With `CCS(=O)(=O)n1cc(-c2cc(N(C)C3CCOCC3)nc(-c3cccc(OCC(O)CNC)c3)n2)c2cncnc21` (stereo not drawn) [Example 484-1a], the concentration for half-maximal inhibition (IC50) in assay [2] (Homo sapiens, RKO) is under 5 µM.
On to `CNCC(O)COc1cccc(-c2nc(C3CCN(C(=O)N(C)C)[C@@H](C)C3)cc(N(C)C3CCOCC3)n2)c1` (stereo partly drawn) [Example 509-1a], for which the IC50 in assay [1] was in the range of 0.1 to 1 µM; in assay [2] (Homo sapiens, RKO) it was 5 to 10 µM.
Take `CNC[C@@H](O)COc1cccc(-c2nc(N3CC4(CCNCC4)c4ccccc43)cc(N(C)C3CCOCC3)n2)c1` [Example 558-1a]: the IC50 in assay [1] was under 0.1 µM; in assay [2], 10 to 20 µM.
As for `CNCC(O)COc1cc(Cl)cc(-c2nc(NC3CCNCC3)cc(-c3ccncc3)n2)c1` (stereo not drawn) [Example 665-1a], in assay [1], the 50% inhibitory concentration (IC50) is under 0.1 µM.
The same measure, in the same setting: then `CNCC(O)COc1cccc(-c2nc(-c3ccncc3)cc(N(C)C3CCNCC3)n2)c1` (stereo not drawn) [Example 669-1a], with under 0.1 µM; and `CNCC(O)COc1cccc(-c2nc(C(=O)NC3CCOCC3)c(C)c(C(=O)NC3CCOCC3)n2)c1` (stereo not drawn) [Example 677-1a], with over 10 µM.
In the case of `CCN(CC)c1nc(-c2cccc(OCC(O)CNC)c2)nc(N2CCOCC2)c1C` (stereo not drawn) [Example 682-1a], in assay [1], the IC50 is under 0.1 µM.
